According to US10039772B2, “Methods and compositions for treating alcohol use disorders” (priority 2015, dated 2018):
“Also recorded” adds a separate entry of the source.

Legend:
[1] = tested on: alcohol dependent and nondependent Wistar rats; assay: Rat operant self-administration of alcohol (dependent and nondependent rats); type: in vivo; conditions: 0, 20, 40 mg/kg IP 90 min prior, 30 min session, FR1; for operant alcohol self-administration (lever press responding for alcohol): both dependent and nondependent rats, alcohol 10% w/v
Procedure: Self-administration sessions were conducted in standard operant conditioning chambers (Med Associates). The rats were trained to self-administer alcohol as previously reported (13). First, the rats were given free-choice access to alcohol (10% w/v) and water for 1 day in their home cages to habituate them to the taste of alcohol. Second, the rats were subjected to an overnight session in the operant chambers with access to one lever (right lever) that delivered water in a fixed-ratio 1 (FR1) schedule where every lever press is reinforced with delivery of 0.1 ml of solution. Food was available ad libitum during this training. Third, after 1 day off, the rats were subjected to a 2 hour session (FR1) for 1 day and a 1 hour session (FR1) the next day, with one lever delivering alcohol (right lever). All of the subsequent sessions lasted 30 min, and two levers were available (left lever: water; right lever: alcohol) until stable levels of intake were reached. Upon completion of this procedure, the animals were allowed to self-administer a 10% (w/v) alcohol solution and water on an FR1 schedule of reinforcement.
The rats were made dependent by chronic, intermittent exposure to alcohol vapors as previously described (13).
Effect of carbenoxolone (CBX) on alcohol drinking in rats and mice.

[2] = tested on: dependent and non-dependent C57BL/6J mice; assay: Mouse limited access 2-bottle choice with chronic intermittent ethanol exposure (CIE); type: in vivo; conditions: for ethanol intake in non-dependent and dependent mice (CIE paradigm): limited access 2-bottle choice, acute IP
Procedure: Exposure of mice to repeated cycles of intermittent ethanol vapor in order to induce dependence increases ethanol drinking following withdrawal in a 2-bottle choice paradigm (112, 113). Thus, the CIE paradigm is used to test the effects of a drug on dependent and nondependent drinking in mice. Briefly, C57BL/6J mutant and WT mice had access to two bottles, one containing water and the other containing 15% (w/v) ethanol, for 2 hours starting 3 hours into the dark phase. Following acquisition of stable alcohol intake, half of the mice were subjected to repeated bouts of ethanol vapor exposure consisting of 16 hours per day for 4 days. Before each exposure to ethanol vapor, mice were IP injected with a solution of 20% v/v ethanol and 68.1 mg/kg pyrazole and immediately placed into ethanol vapor chambers (La Jolla Ethanol Research, CA). Tail blood sampling for blood ethanol level (BAL) determination was carried out daily. Target BALs were 150-200 mg %. Seventy-two hours following removal from the chambers, mice received access to water vs. 20% ethanol for 2 hours, and again over the next 4 days. The following week, mice were re-exposed to the ethanol vapor/control conditions and again tested for t2-bottle choice drinking for 5 days. Three vapor bouts followed by 2-bottle choice were carried out. Mice were weighed every 4-6 days throughout the 2-bottle choice sessions and daily during the vapor exposure bouts. Food and water were available ad libitum and mice were group housed except during the ethanol drinking sessions.

C57BL/6J mice = assay: Mouse drinking in the dark (DID) binge-like drinking; type: in vivo; conditions: for ethanol intake in the DID paradigm: mice, 4 h drinking session, vs saline vehicle
Procedure: The DID paradigm capitalizes on the circadian rhythm in drinking of mice utilizing a discrete time of exposure to ethanol to obtain pharmacologically significant ethanol drinking in a four-day procedure (114, 115). It is considered a preclinical model of binge alcohol drinking (116). Blood ethanol levels of C57BL/6J mice in DID are reliably over 100 mg % following the final drinking bout and produce behavioral intoxication in C57BL/6J mice (115). In the DID paradigm, the water bottle is replaced with a bottle containing 20% ethanol for 2 hours in the home cage 3 hours after lights go off. The design involves 3 daily drinking sessions of 2 hours and a fourth of 4 hours (114, 115).

Wistar rats = conditions: saccharin 0.004%; 0 and 40 mg/kg IP 90 min prior; 30 min session, FR1; listed as carbenoxolone
[3] = in vivo; cited from earlier work

CC1(C(=O)O)CCC2(C)CCC3(C)C(=CC(=O)C4C5(C)CCC(OC(=O)CCC(=O)O)C(C)(C)C5CCC43C)C2C1 (stereo not drawn) [Number 3, 18β-glycyrrhetinic acid 3β-O-hemisuccinate]
operant alcohol self-administration (lever press responding for alcohol) ([1]; listed as CBX): decreases; also recorded: dose-dependently reduced
operant alcohol self-administration (lever press responding for alcohol) ([1]; listed as carbenoxolone): effectively and dose-dependently reduces
water intake / water responding ([1]; dependent and nondependent rats, listed as CBX): did not influence; also recorded: No significant effects
ethanol intake in non-dependent and dependent mice (CIE paradigm) ([2]; listed as CBX): reduces
ethanol intake in non-dependent and dependent mice (CIE paradigm) ([2]; listed as Carbenoxolone): reduced
ethanol intake, dependent mice ([2]; limited access (2 h) 2-bottle choice after alcohol vapor, 40 mg/kg IP): reduced
ethanol intake, non-dependent mice ([2]; limited access (2 h) 2-bottle choice, 20 and 40 mg/kg IP): reduced
time course of the effect on ethanol intake within the DID session (C57BL/6J mice; first 2 h vs whole 4 h session): more pronounced in the first 2 hours
ethanol intake in the DID paradigm (C57BL/6J mice; listed as CBX): reduce
ethanol intake in the DID paradigm (C57BL/6J mice; listed as Carbenoxolone): reduced
operant self-administration of saccharin-sweetened water (Wistar rats): did not affect
crossing of the blood brain barrier (BBB) [3]: does not effectively cross
